In the NIST ThermoML archive (doi:10.1016/j.jct.2006.02.001):
± gives the expanded uncertainty stated by the source.

Legend:
[1] = refractive index (Na D-line) (dimensionless); conditions: 101.33 kPa, Liquid
[2] = 101 kPa, Liquid
[3] = xn = mol fraction of the nth substance listed; conditions: 101 kPa, Liquid
[4] = refractive index (Na D-line) (dimensionless); xn = mol fraction of the nth substance listed; conditions: 101 kPa, Liquid

Cc1ccccc1C [1,2-dimethylbenzene]
Conditions | mass density, 288.15 K [kg/m3] | mass density, 293.15 K [kg/m3] | mass density, 298.15 K [kg/m3] | mass density, 303.15 K [kg/m3] | refractive index, 288.15 K | refractive index, 293.15 K | refractive index, 298.15 K | refractive index, 303.15 K
[1] | – | – | – | – | 1.5072 ± 0.0096 | 1.5047 ± 0.0096 | 1.5018 ± 0.0096 | 1.5 ± 0.0096
[2] | 883.29 ± 0.91 | 879.08 ± 0.92 | 875.53 ± 0.94 | 870.73 ± 0.95 | – | – | – | –

COc1ccccc1 [anisole] + Cc1cccc(C)c1
Conditions | mass density, 288.15 K [kg/m3] | mass density, 293.15 K [kg/m3] | mass density, 298.15 K [kg/m3] | mass density, 303.15 K [kg/m3] | refractive index, 288.15 K | refractive index, 293.15 K | refractive index, 298.15 K | refractive index, 303.15 K
[3], x1 = 0.1006 | 880.54 ± 0.85 | 876.26 ± 0.87 | 872.02 ± 0.88 | 867.67 ± 0.9 | – | – | – | –
[3], x1 = 0.2463 | 898.41 ± 0.79 | 894.1 ± 0.8 | 889.76 ± 0.82 | 885.42 ± 0.84 | – | – | – | –
[3], x1 = 0.3753 | 914.55 ± 0.73 | 910.2 ± 0.75 | 905.8 ± 0.77 | 901.39 ± 0.78 | – | – | – | –
[3], x1 = 0.496 | 930.02 ± 0.68 | 925.62 ± 0.7 | 921.19 ± 0.71 | 916.71 ± 0.73 | – | – | – | –
[3], x1 = 0.6398 | 948.95 ± 0.61 | 944.45 ± 0.63 | 940.02 ± 0.65 | 935.48 ± 0.66 | – | – | – | –
[3], x1 = 0.7468 | 963.38 ± 0.56 | 958.8 ± 0.58 | 954.36 ± 0.6 | 949.8 ± 0.61 | – | – | – | –
[3], x1 = 0.8284 | 974.53 ± 0.52 | 969.91 ± 0.54 | 965.45 ± 0.56 | 960.86 ± 0.58 | – | – | – | –
[3], x1 = 0.9034 | 984.93 ± 0.49 | 980.26 ± 0.51 | 975.77 ± 0.52 | 971.13 ± 0.54 | – | – | – | –
[3], x1 = 0.9613 | 993.02 ± 0.46 | 988.29 ± 0.48 | 983.78 ± 0.5 | 979.08 ± 0.52 | – | – | – | –
[3], x1 = 1 | 998.44 ± 0.45 | 993.65 ± 0.46 | 989.15 ± 0.48 | 984.37 ± 0.5 | – | – | – | –
[4], x1 = 0.1006 | – | – | – | – | 1.5021 ± 0.0096 | 1.4992 ± 0.0096 | 1.4963 ± 0.0096 | 1.4944 ± 0.0096
[4], x1 = 0.2463 | – | – | – | – | 1.5055 ± 0.0096 | 1.5018 ± 0.0096 | 1.499 ± 0.0096 | 1.497 ± 0.0096
[4], x1 = 0.3753 | – | – | – | – | 1.5086 ± 0.0096 | 1.5042 ± 0.0096 | 1.5013 ± 0.0096 | 1.4993 ± 0.0096
[4], x1 = 0.496 | – | – | – | – | 1.5117 ± 0.0097 | 1.5065 ± 0.0096 | 1.5037 ± 0.0096 | 1.5016 ± 0.0096
[4], x1 = 0.6398 | – | – | – | – | 1.5155 ± 0.0097 | 1.5093 ± 0.0096 | 1.5065 ± 0.0096 | 1.5044 ± 0.0096
[4], x1 = 0.7468 | – | – | – | – | 1.5184 ± 0.0097 | 1.5115 ± 0.0096 | 1.5088 ± 0.0096 | 1.5066 ± 0.0096
[4], x1 = 0.8284 | – | – | – | – | 1.5206 ± 0.0097 | 1.5132 ± 0.0097 | 1.5104 ± 0.0096 | 1.5082 ± 0.0096
[4], x1 = 0.9034 | – | – | – | – | 1.5228 ± 0.0097 | 1.5149 ± 0.0097 | 1.5121 ± 0.0096 | 1.5098 ± 0.0096
[4], x1 = 0.9613 | – | – | – | – | 1.5244 ± 0.0097 | 1.5161 ± 0.0097 | 1.5133 ± 0.0096 | 1.511 ± 0.0096
[4], x1 = 1 | – | – | – | – | 1.5256 ± 0.0098 | 1.5169 ± 0.0097 | 1.5141 ± 0.0096 | 1.5117 ± 0.0096

COc1ccccc1 [anisole] + Cc1ccccc1
Conditions | mass density, 288.15 K [kg/m3] | mass density, 293.15 K [kg/m3] | mass density, 298.15 K [kg/m3] | mass density, 303.15 K [kg/m3] | refractive index, 288.15 K | refractive index, 293.15 K | refractive index, 298.15 K | refractive index, 303.15 K
[3], x1 = 0.1179 | 887.1 ± 0.78 | 882.58 ± 0.8 | 877.96 ± 0.82 | 873.25 ± 0.84 | – | – | – | –
[3], x1 = 0.2098 | 899.23 ± 0.74 | 894.67 ± 0.76 | 890.04 ± 0.78 | 885.33 ± 0.8 | – | – | – | –
[3], x1 = 0.3078 | 912.01 ± 0.69 | 907.42 ± 0.71 | 902.81 ± 0.73 | 898.06 ± 0.75 | – | – | – | –
[3], x1 = 0.4082 | 924.96 ± 0.65 | 920.33 ± 0.67 | 915.72 ± 0.69 | 910.95 ± 0.71 | – | – | – | –
[3], x1 = 0.5157 | 938.67 ± 0.61 | 934.03 ± 0.63 | 929.43 ± 0.64 | 924.67 ± 0.66 | – | – | – | –
[3], x1 = 0.6172 | 951.49 ± 0.57 | 946.82 ± 0.59 | 942.24 ± 0.6 | 937.46 ± 0.62 | – | – | – | –
[3], x1 = 0.7286 | 965.32 ± 0.53 | 960.65 ± 0.55 | 956.15 ± 0.56 | 951.37 ± 0.58 | – | – | – | –
[3], x1 = 0.8575 | 981.16 ± 0.49 | 976.45 ± 0.5 | 971.96 ± 0.52 | 967.26 ± 0.54 | – | – | – | –
[3], x1 = 0.917 | 988.36 ± 0.47 | 983.65 ± 0.49 | 979.17 ± 0.5 | 974.46 ± 0.52 | – | – | – | –
[3], x1 = 1 | 998.44 ± 0.45 | 993.65 ± 0.46 | 989.15 ± 0.48 | 984.37 ± 0.5 | – | – | – | –
[4], x1 = 0.1179 | – | – | – | – | 1.503 ± 0.0096 | 1.4997 ± 0.0096 | 1.4971 ± 0.0096 | 1.4946 ± 0.0096
[4], x1 = 0.2098 | – | – | – | – | 1.5056 ± 0.0096 | 1.5017 ± 0.0096 | 1.4992 ± 0.0096 | 1.4966 ± 0.0096
[4], x1 = 0.3078 | – | – | – | – | 1.5083 ± 0.0096 | 1.5038 ± 0.0096 | 1.5012 ± 0.0096 | 1.4987 ± 0.0096
[4], x1 = 0.4082 | – | – | – | – | 1.511 ± 0.0097 | 1.5059 ± 0.0096 | 1.5033 ± 0.0096 | 1.5008 ± 0.0096
[4], x1 = 0.5157 | – | – | – | – | 1.5138 ± 0.0097 | 1.5081 ± 0.0096 | 1.5054 ± 0.0096 | 1.5029 ± 0.0096
[4], x1 = 0.6172 | – | – | – | – | 1.5163 ± 0.0097 | 1.5099 ± 0.0097 | 1.5061 ± 0.0096 | 1.5049 ± 0.0096
[4], x1 = 0.7286 | – | – | – | – | 1.5192 ± 0.0097 | 1.5122 ± 0.0096 | 1.5095 ± 0.0096 | 1.5071 ± 0.0096
[4], x1 = 0.8575 | – | – | – | – | 1.5223 ± 0.0097 | 1.5145 ± 0.0097 | 1.5118 ± 0.0096 | 1.5094 ± 0.0096
[4], x1 = 0.917 | – | – | – | – | 1.5236 ± 0.0097 | 1.5155 ± 0.0097 | 1.5135 ± 0.0096 | 1.5104 ± 0.0096
[4], x1 = 1 | – | – | – | – | 1.5256 ± 0.0098 | 1.5169 ± 0.0097 | 1.5141 ± 0.0096 | 1.5117 ± 0.0096
